Assay results: PubChem BioAssay (NCI)
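All cell lines were grown in 96-well plates and treated with compound for 48 hours. Here, GI50 denotes the concentration required for 50% inhibition of growth. TGI: total growth inhibition.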

Experiments:
Assay in all cases: NCI-60 cell line screen, 48 h
NCI-H522 lung = test system: NCI-H522 lung
SK-MEL-5 melanoma = test system: SK-MEL-5 melanoma
BT-549 breast = test system: BT-549 breast
SR leukemia = test system: SR leukemia
HOP-92 NSCLC = test system: HOP-92 NSCLC
CCRF-CEM leukemia = test system: CCRF-CEM leukemia
DU-145 prostate = test system: DU-145 prostate
SK-MEL-28 melanoma = test system: SK-MEL-28 melanoma
UACC-62 melanoma = test system: UACC-62 melanoma
CAKI-1 renal = test system: CAKI-1 renal
MOLT-4 leukemia = test system: MOLT-4 leukemia
T-47D breast = test system: T-47D breast
EKVX NSCLC = test system: EKVX NSCLC
A498 renal = test system: A498 renal
SK-MEL-2 melanoma = test system: SK-MEL-2 melanoma
MDA-MB-231 breast = test system: MDA-MB-231 breast
MDA-N = test system: MDA-N
KM12 colon = test system: KM12 colon
ACHN renal = test system: ACHN renal
MCF7 breast = test system: MCF7 breast
IGROV1 ovarian = test system: IGROV1 ovarian
SNB-19 CNS = test system: SNB-19 CNS
MALME-3M melanoma = test system: MALME-3M melanoma
TK-10 renal = test system: TK-10 renal
HL-60(TB) leukemia = test system: HL-60(TB) leukemia
A549 NSCLC = test system: A549 NSCLC
OVCAR-8 ovarian = test system: OVCAR-8 ovarian
UO-31 renal = test system: UO-31 renal
HOP-62 NSCLC = test system: HOP-62 NSCLC
SK-OV-3 ovarian = test system: SK-OV-3 ovarian
RPMI-8226 leukemia = test system: RPMI-8226 leukemia
LOX IMVI melanoma = test system: LOX IMVI melanoma
NCI-H23 lung = test system: NCI-H23 lung
OVCAR-5 ovarian = test system: OVCAR-5 ovarian
HCC-2998 colon = test system: HCC-2998 colon
OVCAR-3 ovarian = test system: OVCAR-3 ovarian
SF-539 CNS = test system: SF-539 CNS
K-562 leukemia = test system: K-562 leukemia
COLO 205 colon = test system: COLO 205 colon
MDA-MB-435 = test system: MDA-MB-435
UACC-257 melanoma = test system: UACC-257 melanoma
NCI/ADR-RES ovarian = test system: NCI/ADR-RES ovarian
SW-620 colon = test system: SW-620 colon
SNB-75 CNS = test system: SNB-75 CNS
U251 CNS = test system: U251 CNS
HCT-116 colon = test system: HCT-116 colon
HS 578T breast = test system: HS 578T breast
HT29 colon = test system: HT29 colon
HCT-15 colon = test system: HCT-15 colon
NCI-H226 lung = test system: NCI-H226 lung
SN12C renal = test system: SN12C renal
SF-295 CNS = test system: SF-295 CNS
786-0 renal = test system: 786-0 renal
PC-3 prostate = test system: PC-3 prostate
RXF 393 renal = test system: RXF 393 renal
SF-268 CNS = test system: SF-268 CNS
OVCAR-4 ovarian = test system: OVCAR-4 ovarian
M14 melanoma = test system: M14 melanoma
NCI-H460 lung = test system: NCI-H460 lung

SMILES: Nc1nc(N)c2cc(Sc3cccc(C(F)(F)F)c3)ccc2n1
- TGI (NCI-H522 lung): 8.34 µM
- TGI (SK-MEL-5 melanoma): 5.86 µM
- TGI (BT-549 breast): 20.5 µM
- TGI (SR leukemia): 4.71 µM
- TGI (HOP-92 NSCLC): 9.54 µM
- TGI (CCRF-CEM leukemia): 15.3 µM
- TGI (DU-145 prostate): 14.4 µM
- TGI (SK-MEL-28 melanoma): 7.61 µM
- TGI (UACC-62 melanoma): 5.49 µM
- TGI (CAKI-1 renal): 16.7 µM
- TGI (MOLT-4 leukemia): 6.08 µM
- GI50 (T-47D breast): 1.71 µM
- TGI (T-47D breast): 3.6 µM
- TGI (EKVX NSCLC): 19.8 µM
- GI50 (A498 renal): 2.17 µM
- TGI (A498 renal): 14.4 µM
- TGI (SK-MEL-2 melanoma): 5.25 µM
- TGI (MDA-MB-231 breast): 7.14 µM
- TGI (MDA-N): 13.9 µM
- TGI (KM12 colon): 11.3 µM
- TGI (ACHN renal): 14.7 µM
- TGI (MCF7 breast): 16.2 µM
- TGI (IGROV1 ovarian): 15.6 µM
- TGI (SNB-19 CNS): 18.4 µM
- TGI (MALME-3M melanoma): 2.91 µM
- TGI (TK-10 renal): 14 µM
- TGI (HL-60(TB) leukemia): 3.24 µM
- TGI (A549 NSCLC): 13.2 µM
- GI50 (OVCAR-8 ovarian): 0.713 µM
- TGI (OVCAR-8 ovarian): 4.55 µM
- TGI (UO-31 renal): 9.84 µM
- TGI (HOP-62 NSCLC): 15.9 µM
- TGI (SK-OV-3 ovarian): 21 µM
- TGI (RPMI-8226 leukemia): 5.43 µM
- GI50 (LOX IMVI melanoma): 0.307 µM
- TGI (LOX IMVI melanoma): 1.82 µM
- TGI (NCI-H23 lung): 16.4 µM
- TGI (OVCAR-5 ovarian): 16.3 µM
- TGI (HCC-2998 colon): 2.83 µM
- TGI (OVCAR-3 ovarian): 13.6 µM
- TGI (SF-539 CNS): 13.9 µM
- TGI (K-562 leukemia): 1.92 µM
- TGI (COLO 205 colon): 3.02 µM
- TGI (MDA-MB-435): 5.81 µM
- GI50 (UACC-257 melanoma): 1.27 µM
- TGI (UACC-257 melanoma): 3.36 µM
- TGI (NCI/ADR-RES ovarian): 14.8 µM
- GI50 (SW-620 colon): 0.267 µM
- TGI (SW-620 colon): 1.57 µM
- TGI (SNB-75 CNS): 15.9 µM
- TGI (U251 CNS): 4.78 µM
- TGI (HCT-116 colon): 1.33 µM
- TGI (HS 578T breast): 10.2 µM
- TGI (HT29 colon): 8.16 µM
- TGI (HCT-15 colon): 12.7 µM
- GI50 (NCI-H226 lung): 2.34 µM
- TGI (NCI-H226 lung): 8.15 µM
- TGI (SN12C renal): 15.7 µM
- TGI (SF-295 CNS): 8.97 µM
- TGI (786-0 renal): 5.38 µM
- GI50 (PC-3 prostate): 0.698 µM
- TGI (PC-3 prostate): 14.9 µM
- GI50 (RXF 393 renal): 1.01 µM
- TGI (RXF 393 renal): 2.53 µM
- TGI (SF-268 CNS): 19 µM
- TGI (OVCAR-4 ovarian): 18.6 µM
- TGI (M14 melanoma): 2.21 µM
- TGI (NCI-H460 lung): 4.77 µM

SMILES: CC1CN=C(c2cccc(-c3nc(-c4cccc(C5=NCC(C)N5)c4)nc(N(C)C)n3)c2)N1 (configuration not stated)
- TGI (NCI-H522 lung): 2.51 µM
- TGI (SK-MEL-5 melanoma): 7.93 µM
- TGI (BT-549 breast): 13.9 µM
- TGI (SR leukemia): 1.96 µM
- TGI (HOP-92 NSCLC): 20.3 µM
- TGI (CCRF-CEM leukemia): 3.45 µM
- TGI (DU-145 prostate): 7.14 µM
- TGI (SK-MEL-28 melanoma): 13.2 µM
- TGI (UACC-62 melanoma): 3.83 µM
- TGI (CAKI-1 renal): 32.2 µM
- TGI (MOLT-4 leukemia): 2.7 µM
- TGI (T-47D breast): 15.1 µM
- TGI (EKVX NSCLC): 8.64 µM
- TGI (A498 renal): 5.99 µM
- TGI (SK-MEL-2 melanoma): 4.64 µM
- TGI (MDA-MB-231 breast): 3.48 µM
- TGI (MDA-N): 4.08 µM
- TGI (KM12 colon): 7.72 µM
- TGI (ACHN renal): 10.1 µM
- TGI (MCF7 breast): 3.33 µM
- TGI (IGROV1 ovarian): 18.4 µM
- TGI (SNB-19 CNS): 5.27 µM
- TGI (MALME-3M melanoma): 14.8 µM
- TGI (TK-10 renal): 9.76 µM
- TGI (HL-60(TB) leukemia): 4.81 µM
- TGI (A549 NSCLC): 9.27 µM
- TGI (OVCAR-8 ovarian): 11.6 µM
- TGI (UO-31 renal): 13.4 µM
- TGI (HOP-62 NSCLC): 5.9 µM
- TGI (SK-OV-3 ovarian): 4.61 µM
- TGI (RPMI-8226 leukemia): 6.87 µM
- TGI (LOX IMVI melanoma): 2.6 µM
- TGI (NCI-H23 lung): 7.77 µM
- TGI (OVCAR-5 ovarian): 10.2 µM
- TGI (HCC-2998 colon): 2.39 µM
- TGI (OVCAR-3 ovarian): 4.19 µM
- TGI (SF-539 CNS): 1.66 µM
- TGI (K-562 leukemia): 2.77 µM
- TGI (COLO 205 colon): 2.5 µM
- TGI (MDA-MB-435): 2.61 µM
- TGI (UACC-257 melanoma): 11 µM
- TGI (NCI/ADR-RES ovarian): 35.9 µM
- TGI (SW-620 colon): 3.72 µM
- TGI (SNB-75 CNS): 5.13 µM
- TGI (U251 CNS): 2.13 µM
- TGI (HCT-116 colon): 2.49 µM
- TGI (HS 578T breast): 17.1 µM
- TGI (HT29 colon): 5.48 µM
- TGI (HCT-15 colon): 24.7 µM
- TGI (NCI-H226 lung): 6.47 µM
- TGI (SN12C renal): 3.46 µM
- TGI (SF-295 CNS): 14.3 µM
- TGI (786-0 renal): 5.67 µM
- TGI (PC-3 prostate): 3.31 µM
- TGI (RXF 393 renal): 11.8 µM
- TGI (SF-268 CNS): 10.7 µM
- TGI (OVCAR-4 ovarian): 2.72 µM
- TGI (M14 melanoma): 13 µM
- TGI (NCI-H460 lung): 4.38 µM
